The source made the active and inactive calls.

The text below walks through data of ChEMBL document CHEMBL1201862, “PubChem BioAssay data set” (2004).

The target in one assay is T1, Streptokinase A (Streptococcus pyogenes serotype M1, UniProt P10520).
T1 sequence (P10520 whole entry): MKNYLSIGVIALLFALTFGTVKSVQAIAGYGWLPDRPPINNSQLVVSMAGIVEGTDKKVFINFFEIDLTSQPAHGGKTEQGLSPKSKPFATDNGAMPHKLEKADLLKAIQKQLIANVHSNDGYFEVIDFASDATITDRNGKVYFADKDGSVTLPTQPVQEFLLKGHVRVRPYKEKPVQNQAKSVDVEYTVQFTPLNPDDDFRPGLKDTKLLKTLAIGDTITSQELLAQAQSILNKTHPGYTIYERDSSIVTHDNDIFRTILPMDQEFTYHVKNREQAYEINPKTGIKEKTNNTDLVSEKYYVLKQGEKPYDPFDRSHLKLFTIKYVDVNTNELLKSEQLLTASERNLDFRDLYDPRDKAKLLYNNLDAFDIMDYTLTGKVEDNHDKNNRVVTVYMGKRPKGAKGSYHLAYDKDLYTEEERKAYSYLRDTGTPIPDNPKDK
As to the kind of experiment: S. pyogenes streptokinase expression inhibitors, potency, dose response, plasminogen activation absorbance, OD405 (AID 1914).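 Note: secreted streptokinase activity via plasminogen activation per viability signal from cell pellet.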 In kind it is functional, Streptococcus pyogenes M1 GAS.

Assay [1] has as its target T2, Calpain-2 catalytic subunit (Sus scrofa, UniProt P43367).
T2 sequence (P43367 whole entry): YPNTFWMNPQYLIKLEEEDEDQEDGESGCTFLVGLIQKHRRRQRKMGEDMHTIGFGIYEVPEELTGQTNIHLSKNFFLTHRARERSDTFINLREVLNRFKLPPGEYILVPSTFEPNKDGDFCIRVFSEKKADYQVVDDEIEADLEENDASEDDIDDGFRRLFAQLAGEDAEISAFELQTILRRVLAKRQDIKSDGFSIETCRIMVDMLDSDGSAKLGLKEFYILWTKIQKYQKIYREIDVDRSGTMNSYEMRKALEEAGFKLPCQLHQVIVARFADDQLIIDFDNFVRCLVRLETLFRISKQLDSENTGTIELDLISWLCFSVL
As to the kind of experiment: pig calpain II inhibitor potency, dose response, biochemical, fluorogenic peptide substrate (AID 1420). In kind it is functional.

Assay [2] has as its target T3, Sentrin-specific protease 8 (Homo sapiens, UniProt Q96LD8).
T3 sequence (Q96LD8 whole entry): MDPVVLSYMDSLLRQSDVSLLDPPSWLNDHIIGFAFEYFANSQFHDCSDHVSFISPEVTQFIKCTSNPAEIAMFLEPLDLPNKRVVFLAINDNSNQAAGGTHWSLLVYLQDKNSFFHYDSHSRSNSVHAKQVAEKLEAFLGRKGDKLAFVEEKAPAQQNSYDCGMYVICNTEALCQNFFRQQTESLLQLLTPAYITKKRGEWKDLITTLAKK
As to the kind of experiment: SENP8 protease inhibitors, SAR follow-up, biochemical, luminescence (AID 504501). Type of assay: functional.

The target in another assay is Protein Rev (Human immunodeficiency virus type 1 group M subtype B (isolate HXB2)(HIV-1), UniProt P04618). Nature of the assay: inhibitors of Rev binding to RRE RNA, dose response, biochemical, fluorescence polarization, HIV-1 (AID 434976). Further details: species or system Human immunodeficiency virus 1.
Assay [3] has as its target T4, Sentrin-specific protease 7 (Homo sapiens, UniProt Q9BQF6).
T4 sequence (Q9BQF6 whole entry): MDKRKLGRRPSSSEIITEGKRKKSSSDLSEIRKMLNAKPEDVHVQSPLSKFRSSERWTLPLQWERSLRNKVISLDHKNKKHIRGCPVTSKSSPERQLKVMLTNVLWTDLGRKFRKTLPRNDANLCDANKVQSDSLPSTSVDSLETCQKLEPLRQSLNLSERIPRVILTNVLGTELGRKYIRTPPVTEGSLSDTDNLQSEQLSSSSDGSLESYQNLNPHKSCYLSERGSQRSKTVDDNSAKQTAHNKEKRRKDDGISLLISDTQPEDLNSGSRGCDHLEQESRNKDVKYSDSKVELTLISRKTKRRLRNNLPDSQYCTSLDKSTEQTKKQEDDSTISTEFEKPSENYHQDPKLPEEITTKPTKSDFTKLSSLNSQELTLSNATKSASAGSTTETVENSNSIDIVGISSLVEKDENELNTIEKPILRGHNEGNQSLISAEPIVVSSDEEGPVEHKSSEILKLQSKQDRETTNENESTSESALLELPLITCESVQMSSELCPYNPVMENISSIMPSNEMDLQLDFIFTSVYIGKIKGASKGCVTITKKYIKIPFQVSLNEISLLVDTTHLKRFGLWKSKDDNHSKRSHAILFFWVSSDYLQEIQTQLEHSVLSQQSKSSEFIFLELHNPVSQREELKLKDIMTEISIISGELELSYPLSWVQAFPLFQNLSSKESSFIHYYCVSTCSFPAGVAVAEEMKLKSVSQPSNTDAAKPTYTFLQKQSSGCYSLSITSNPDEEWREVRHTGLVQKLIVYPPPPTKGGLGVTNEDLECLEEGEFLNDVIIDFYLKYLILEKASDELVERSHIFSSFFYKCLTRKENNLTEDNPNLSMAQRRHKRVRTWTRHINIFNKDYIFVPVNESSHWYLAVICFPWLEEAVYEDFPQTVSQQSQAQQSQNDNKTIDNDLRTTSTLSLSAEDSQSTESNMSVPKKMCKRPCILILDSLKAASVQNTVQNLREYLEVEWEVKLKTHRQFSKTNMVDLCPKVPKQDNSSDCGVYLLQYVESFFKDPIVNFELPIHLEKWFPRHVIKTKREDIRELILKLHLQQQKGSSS
As to the kind of experiment: SENP7 protease inhibitors, SAR follow-up, biochemical, luminescence (AID 504497). In kind it is functional.

The target of assay [4] is Polyadenylate-binding protein 1 (Homo sapiens, UniProt P11940). As to the kind of experiment: PABP1 MLLE–PAM2 interaction inhibitors, dose response, miRNA deadenylation inhibitor project, biochemical, fluorescence polarization, Cy5-PAM2 peptide, secondary (AID 602260). Type of assay: functional. Particulars: read-out: IC50_Mean. (Polarisation of emitted light reports the rotation of a fluorescent probe.)

The subject of assay [5] is BJ. Nature of the assay: cytotoxicity toward BJ-TERT fibroblasts, dose response, cell-based, RAS-independent, luminescence (AID 1933). Particulars: Homo sapiens. In kind it is functional.
In another assay the test system is INS1. Nature of the assay: beta cell apoptosis inhibitors, cytokine rescue, dose response, luminescence, retest (AID 449756).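 Note: cell death triggered by IL-1 beta plus TNF-alpha plus IFN-gamma mixture; protective hits raise ATP signal compared with cytokine alone wells.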 Type of assay: functional, cell-based. Particulars: Rattus norvegicus.
A short description of assay [6]: cytotoxicity toward DRD oncogenic fibroblasts, dose response, cell-based, non-viral oncogenic, luminescence (AID 1934). Particulars: Homo sapiens. In kind it is functional.
Assay [7] is described as follows: Luminescence-based dose response cell-based high throughput screening assay for cytotoxic compounds using the IEC-6 intestinal epithelial cell line. [Related pubchem assays: 1858 (Summary AID.), 1825 (Counterscreen.), 1907 (Confirmation screen.)]. In kind it is functional. Background: A counterscreen serves to expose hits that act by an unwanted route or on another target.

Assay [8] relates to BJ. Nature of the assay: cytotoxicity toward Ras-transformed BJeLR fibroblasts, dose response, cell-based, alamar blue fluorescence, cherrypicked samples (AID 2631).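 Note: confirmatory dose-response assay in RAS-dependent BJ fibroblasts engineered with TERT, LT and ST, with cytotoxicity read by fluorescence.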 In kind it is functional. Particulars: Homo sapiens.
Assay [9] is described as follows: HeLa cell cytotoxicity, dose response, cytotoxicity control for MgcRacGAP inhibitor project (AID 624300). Type of assay: functional.
The nature of assay [10]: inhibitors of intracellular T. cruzi replication, confirmation, NIH3T3 host cells, beta-gal luminescence (AID 2044).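 Note: intracellular parasites grown in NIH/3T3 mouse fibroblasts as host cells; luminescent beta-galactosidase reporter signal from transgenic T. cruzi replicating inside host cells; inhibitors lower the luminescence signal.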 Type of assay: functional, cell-based.
Assay [11] can be described thus: cytotoxicity toward NIH3T3 fibroblasts, dose response, counter-screen, cell-based, ATP luminescence, mouse fibroblasts (AID 2010).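 Note: cells exposed to compound for about 90 hours before reading.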 In kind it is functional.
A further assay relates to Vero. Nature of the assay: Vero cell cytotoxicity, cytotoxicity control for flavivirus capping enzyme inhibitors (AID 588742). Type of assay: functional. Conditions: Chlorocebus sabaeus.
A further assay deals with SUMO-activating enzyme (Homo sapiens, UniProt Q9UBT2). As to the kind of experiment: SUMOylation inhibitor hit validation, confirmation, SUMOylation inhibitor project, biochemical, AlphaScreen (AID 2018). In kind it is functional. (In general: Bead proximity is the source of the signal in Alpha formats.)
Chain of SUMO-activating enzyme (Q9UBE0 whole entry): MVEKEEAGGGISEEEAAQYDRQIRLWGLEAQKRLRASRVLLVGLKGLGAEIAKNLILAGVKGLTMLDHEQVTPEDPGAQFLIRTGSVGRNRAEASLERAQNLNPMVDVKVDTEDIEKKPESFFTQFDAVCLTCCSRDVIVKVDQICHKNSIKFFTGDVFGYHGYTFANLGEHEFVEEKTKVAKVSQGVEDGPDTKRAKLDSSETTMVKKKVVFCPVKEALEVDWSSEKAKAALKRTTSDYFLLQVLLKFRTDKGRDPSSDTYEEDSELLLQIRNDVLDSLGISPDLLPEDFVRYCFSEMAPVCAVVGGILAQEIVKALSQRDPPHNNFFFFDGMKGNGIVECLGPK
Chain of SUMO-activating enzyme (Q9UBT2 whole entry): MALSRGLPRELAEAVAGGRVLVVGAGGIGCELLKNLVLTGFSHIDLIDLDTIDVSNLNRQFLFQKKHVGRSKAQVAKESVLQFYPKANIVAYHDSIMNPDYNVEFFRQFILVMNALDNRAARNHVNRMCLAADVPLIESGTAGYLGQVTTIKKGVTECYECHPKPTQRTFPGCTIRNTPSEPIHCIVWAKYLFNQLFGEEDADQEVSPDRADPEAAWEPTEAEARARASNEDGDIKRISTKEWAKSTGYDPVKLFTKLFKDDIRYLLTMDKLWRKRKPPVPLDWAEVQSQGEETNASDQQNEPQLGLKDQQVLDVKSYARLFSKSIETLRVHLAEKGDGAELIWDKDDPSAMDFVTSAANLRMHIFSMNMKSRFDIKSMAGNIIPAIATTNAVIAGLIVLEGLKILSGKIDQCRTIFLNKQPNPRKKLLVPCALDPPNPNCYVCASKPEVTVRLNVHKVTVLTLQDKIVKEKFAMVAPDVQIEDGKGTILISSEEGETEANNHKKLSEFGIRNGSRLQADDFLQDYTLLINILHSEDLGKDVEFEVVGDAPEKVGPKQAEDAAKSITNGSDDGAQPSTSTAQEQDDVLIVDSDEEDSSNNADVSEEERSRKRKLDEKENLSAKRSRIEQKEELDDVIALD

Chain of Polyadenylate-binding protein 1 (P11940 whole entry): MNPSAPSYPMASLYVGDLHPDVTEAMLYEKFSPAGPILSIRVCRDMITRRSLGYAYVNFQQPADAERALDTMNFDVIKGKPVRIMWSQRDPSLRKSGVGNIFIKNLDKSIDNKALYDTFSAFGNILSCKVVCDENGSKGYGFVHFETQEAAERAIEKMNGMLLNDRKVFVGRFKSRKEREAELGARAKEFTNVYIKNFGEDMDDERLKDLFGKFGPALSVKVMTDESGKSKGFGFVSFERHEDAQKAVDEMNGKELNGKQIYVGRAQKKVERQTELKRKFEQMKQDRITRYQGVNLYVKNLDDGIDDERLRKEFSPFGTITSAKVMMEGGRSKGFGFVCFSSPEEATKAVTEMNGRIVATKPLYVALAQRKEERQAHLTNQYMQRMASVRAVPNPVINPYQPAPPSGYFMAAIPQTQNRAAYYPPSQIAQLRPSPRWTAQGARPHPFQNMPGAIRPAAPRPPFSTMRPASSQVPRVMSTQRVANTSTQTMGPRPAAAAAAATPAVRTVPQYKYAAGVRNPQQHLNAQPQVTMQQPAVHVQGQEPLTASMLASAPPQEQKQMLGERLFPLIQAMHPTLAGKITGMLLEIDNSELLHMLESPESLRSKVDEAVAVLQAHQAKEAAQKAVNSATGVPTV
Chain of Protein Rev (P04618 whole entry): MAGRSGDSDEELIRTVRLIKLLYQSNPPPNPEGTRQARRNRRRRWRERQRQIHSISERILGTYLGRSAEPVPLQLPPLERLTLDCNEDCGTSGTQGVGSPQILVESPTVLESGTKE

`Cc1cccc(C)c1-n1cccc1/C=C1\SC(=S)N(c2cccc(C(=O)O)c2)C1=O`: at Streptokinase A, the EC50 is 3.8 µM (active). Besides, the IC50 in assay [1] is on record as 7.27 µM (not active).

On to `Oc1ccc(/C=N/Nc2cc(N3CCCC3)nc(N3CCCC3)n2)cc1`, for which the IC50 in assay [2] was > 99 µM (inactive); at Protein Rev it was 1.36 µM (active); in assay [3], > 99 µM (inactive); in assay [4], > 66 µM (inactive).

For `COc1ccc(S(=O)(=O)/N=C2\C=C(Nc3ccc(O)cc3)C(=O)c3ccccc32)cc1`, the results for the EC50 (in the assay with BJ [5]; in [6]; in the assay with BJ [8]) were 1.53 µM (active), 2.89 µM (active) and 0.507 µM (inconclusive), respectively. In the assay on INS1, the half-maximal activity concentration (AC50) was 0.592 µM (active). Besides, the IC50 in [7] is 0.586 µM (active). The CC50 in assay [9] is 2.15 µM (active).

As to `COc1ccc(/C=N/Nc2cc(N3CCCC3)nc(N3CCCC3)n2)cc1`, the EC50 is 1.71 µM (active) in assay [10] and 8.97 µM (active) in [11]. Further, in the assay on Vero, the CC50 is 24.7 µM (active). On SUMO-activating enzyme, the IC50 is 0.68 µM (active).

For orientation: EC50 means the concentration giving half of the maximal effect. What is called AC50 is the midpoint of the concentration-response curve, whichever way the signal moves. As a reminder, the CC50 is the concentration that lowers cell viability or growth by half.
